Data as given in publication PMC12136037, “Type II kinase inhibitors that target Parkinson’s disease–associated LRRK2” (Science Advances, 2025).
Read-outs that look alike come from different tables or passages of the source.

How the values were obtained:
Assay in all cases: DSF 100 kinase selectivity screen;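 for dTm: compound tested at 20 µM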
Assay type in all cases: binding
[1] = target: T1, ~100 representative kinases (Homo sapiens, UniProt P17948); settings: protein FLT1; average of three replicates
T1 construct: Recombinant protein kinase domains with a concentration of 2 μM
Procedure, shortened: (§1)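 Each kinase domain, at 2 μM, is mixed with 20 μM test compound and SYPRO Orange in Hepes (20 mM, pH 7.5) with 500 mM NaCl. Temperature is then raised at 3°C/min and fluorescence-monitored unfolding yields the melting temperature change, ΔTm in degrees Celsius.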

[2] = target: T2, ~100 representative kinases (Homo sapiens, UniProt Q16566); settings: Protein CAMK4; average of three replicates
T2 construct: Recombinant protein kinase domains with a concentration of 2 μM
T2 sequence (Q16566 1-473): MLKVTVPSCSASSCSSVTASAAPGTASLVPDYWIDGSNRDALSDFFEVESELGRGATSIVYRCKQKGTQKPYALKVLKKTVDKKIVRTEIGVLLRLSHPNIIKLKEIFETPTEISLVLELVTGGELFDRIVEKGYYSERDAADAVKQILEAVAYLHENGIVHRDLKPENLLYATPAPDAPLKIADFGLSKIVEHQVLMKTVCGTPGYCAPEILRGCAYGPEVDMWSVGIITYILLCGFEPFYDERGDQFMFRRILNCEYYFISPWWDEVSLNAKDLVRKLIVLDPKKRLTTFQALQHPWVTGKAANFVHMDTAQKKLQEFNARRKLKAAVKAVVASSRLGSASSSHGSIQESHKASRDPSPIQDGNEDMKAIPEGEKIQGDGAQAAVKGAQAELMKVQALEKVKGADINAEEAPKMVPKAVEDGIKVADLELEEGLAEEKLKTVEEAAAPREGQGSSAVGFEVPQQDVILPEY
Procedure, shortened: as §1

[3] = target: T3, ~100 representative kinases (Homo sapiens, UniProt P15735); settings: protein PHKG2; average of three replicates
T3 construct: Recombinant protein kinase domains with a concentration of 2 μM
T3 sequence (P15735 1-406): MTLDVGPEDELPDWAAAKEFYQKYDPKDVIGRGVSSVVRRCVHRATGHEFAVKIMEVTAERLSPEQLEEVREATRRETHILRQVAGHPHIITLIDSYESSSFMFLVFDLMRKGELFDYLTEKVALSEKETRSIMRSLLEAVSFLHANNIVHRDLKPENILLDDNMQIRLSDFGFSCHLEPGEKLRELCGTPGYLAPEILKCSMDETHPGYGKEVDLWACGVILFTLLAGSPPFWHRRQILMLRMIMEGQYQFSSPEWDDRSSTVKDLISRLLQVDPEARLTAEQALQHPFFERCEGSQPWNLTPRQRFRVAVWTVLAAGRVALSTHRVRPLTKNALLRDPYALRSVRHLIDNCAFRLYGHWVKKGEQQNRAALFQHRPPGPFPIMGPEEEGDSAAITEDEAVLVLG
Procedure, shortened: as §1

[4] = target: T4, ~100 representative kinases (Homo sapiens, UniProt P53355); settings: Protein DAPK1; average of three replicates
T4 construct: Recombinant protein kinase domains with a concentration of 2 μM
Procedure, shortened: as §1

[5] = target: T5, ~100 representative kinases (Homo sapiens, UniProt Q96SB4); settings: Protein SRPK1; DSF; average of three replicates
T5 construct: Recombinant protein kinase domains with a concentration of 2 μM
Procedure, shortened: as §1

[6] = system: ~100 representative kinases; settings: for S (5 K) / share of screened kinases stabilized: DSF selectivity panel, thermal shift >5 K; for dTm: Protein BRD, average of three replicates
Procedure, shortened: as §1

[7] = target: T6, ~100 representative kinases (Homo sapiens, UniProt Q86V86); settings: protein PIM3; average of three replicates
T6 construct: Recombinant protein kinase domains with a concentration of 2 μM
Procedure, shortened: as §1

[8] = target: T7, ~100 representative kinases (Homo sapiens, UniProt Q13557); settings: Protein CAMK2D; average of three replicates
T7 construct: Recombinant protein kinase domains with a concentration of 2 μM
Procedure, shortened: as §1

[9] = target: T8, ~100 representative kinases (Homo sapiens, UniProt P52564); settings: protein MAP2K6; average of three replicates
T8 construct: Recombinant protein kinase domains with a concentration of 2 μM
T8 sequence (P52564 1-334): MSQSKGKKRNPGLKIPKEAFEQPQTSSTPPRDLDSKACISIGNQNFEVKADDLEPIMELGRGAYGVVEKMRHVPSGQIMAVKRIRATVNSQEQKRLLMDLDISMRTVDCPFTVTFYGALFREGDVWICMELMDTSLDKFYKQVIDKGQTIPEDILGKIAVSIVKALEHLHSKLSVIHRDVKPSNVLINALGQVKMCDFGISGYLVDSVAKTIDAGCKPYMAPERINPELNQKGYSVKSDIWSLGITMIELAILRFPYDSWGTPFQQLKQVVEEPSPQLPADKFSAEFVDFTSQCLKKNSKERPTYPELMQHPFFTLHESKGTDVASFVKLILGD
Procedure, shortened: as §1

[10] = target: T9, ~100 representative kinases (Homo sapiens, UniProt P45985); settings: protein MAP2K4; average of three replicates
T9 construct: Recombinant protein kinase domains with a concentration of 2 μM
T9 sequence (P45985 1-399): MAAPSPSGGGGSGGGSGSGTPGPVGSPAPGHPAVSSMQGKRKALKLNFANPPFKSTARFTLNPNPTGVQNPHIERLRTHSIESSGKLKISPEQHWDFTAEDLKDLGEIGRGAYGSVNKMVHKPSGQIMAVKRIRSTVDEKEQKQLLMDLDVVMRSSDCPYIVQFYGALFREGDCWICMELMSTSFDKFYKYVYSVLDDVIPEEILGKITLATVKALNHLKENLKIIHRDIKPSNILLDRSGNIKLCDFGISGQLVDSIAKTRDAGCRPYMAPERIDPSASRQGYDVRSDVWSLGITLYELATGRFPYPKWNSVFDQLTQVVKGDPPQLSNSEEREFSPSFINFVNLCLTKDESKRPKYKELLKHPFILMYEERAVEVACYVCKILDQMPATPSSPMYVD
Procedure, shortened: as §1

[11] = target: T10, ~100 representative kinases (Homo sapiens, UniProt P11309); settings: protein PIM1; average of three replicates
T10 construct: Recombinant protein kinase domains with a concentration of 2 μM
Procedure, shortened: as §1

[12] = number of kinases with thermal shift >5 K divided by total number of kinases screened
[13] = number of proteins of the DSF panel with dTm >5K
[14] = selectivity score: # >5K divided by # of proteins tested in the DSF panel

T5 sequence (Q96SB4 whole entry, the tested form may be a part): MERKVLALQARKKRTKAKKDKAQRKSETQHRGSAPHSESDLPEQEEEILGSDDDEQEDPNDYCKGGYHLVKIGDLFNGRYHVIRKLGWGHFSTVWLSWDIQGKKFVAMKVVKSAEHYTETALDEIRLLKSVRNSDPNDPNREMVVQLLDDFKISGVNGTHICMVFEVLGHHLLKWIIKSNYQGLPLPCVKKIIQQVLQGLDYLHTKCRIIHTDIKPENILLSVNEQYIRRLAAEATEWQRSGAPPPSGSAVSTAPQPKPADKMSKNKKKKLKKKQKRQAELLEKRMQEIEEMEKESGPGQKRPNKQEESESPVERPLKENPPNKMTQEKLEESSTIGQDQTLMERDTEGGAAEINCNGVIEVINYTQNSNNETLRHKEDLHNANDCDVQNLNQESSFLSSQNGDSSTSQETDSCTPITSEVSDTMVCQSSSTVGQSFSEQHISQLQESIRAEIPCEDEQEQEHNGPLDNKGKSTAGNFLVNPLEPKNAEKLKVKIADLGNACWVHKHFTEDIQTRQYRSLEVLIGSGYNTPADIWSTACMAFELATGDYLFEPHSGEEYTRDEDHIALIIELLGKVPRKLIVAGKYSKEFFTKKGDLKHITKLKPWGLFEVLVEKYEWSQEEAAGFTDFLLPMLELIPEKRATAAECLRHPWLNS
T1 sequence (P17948 27-1338): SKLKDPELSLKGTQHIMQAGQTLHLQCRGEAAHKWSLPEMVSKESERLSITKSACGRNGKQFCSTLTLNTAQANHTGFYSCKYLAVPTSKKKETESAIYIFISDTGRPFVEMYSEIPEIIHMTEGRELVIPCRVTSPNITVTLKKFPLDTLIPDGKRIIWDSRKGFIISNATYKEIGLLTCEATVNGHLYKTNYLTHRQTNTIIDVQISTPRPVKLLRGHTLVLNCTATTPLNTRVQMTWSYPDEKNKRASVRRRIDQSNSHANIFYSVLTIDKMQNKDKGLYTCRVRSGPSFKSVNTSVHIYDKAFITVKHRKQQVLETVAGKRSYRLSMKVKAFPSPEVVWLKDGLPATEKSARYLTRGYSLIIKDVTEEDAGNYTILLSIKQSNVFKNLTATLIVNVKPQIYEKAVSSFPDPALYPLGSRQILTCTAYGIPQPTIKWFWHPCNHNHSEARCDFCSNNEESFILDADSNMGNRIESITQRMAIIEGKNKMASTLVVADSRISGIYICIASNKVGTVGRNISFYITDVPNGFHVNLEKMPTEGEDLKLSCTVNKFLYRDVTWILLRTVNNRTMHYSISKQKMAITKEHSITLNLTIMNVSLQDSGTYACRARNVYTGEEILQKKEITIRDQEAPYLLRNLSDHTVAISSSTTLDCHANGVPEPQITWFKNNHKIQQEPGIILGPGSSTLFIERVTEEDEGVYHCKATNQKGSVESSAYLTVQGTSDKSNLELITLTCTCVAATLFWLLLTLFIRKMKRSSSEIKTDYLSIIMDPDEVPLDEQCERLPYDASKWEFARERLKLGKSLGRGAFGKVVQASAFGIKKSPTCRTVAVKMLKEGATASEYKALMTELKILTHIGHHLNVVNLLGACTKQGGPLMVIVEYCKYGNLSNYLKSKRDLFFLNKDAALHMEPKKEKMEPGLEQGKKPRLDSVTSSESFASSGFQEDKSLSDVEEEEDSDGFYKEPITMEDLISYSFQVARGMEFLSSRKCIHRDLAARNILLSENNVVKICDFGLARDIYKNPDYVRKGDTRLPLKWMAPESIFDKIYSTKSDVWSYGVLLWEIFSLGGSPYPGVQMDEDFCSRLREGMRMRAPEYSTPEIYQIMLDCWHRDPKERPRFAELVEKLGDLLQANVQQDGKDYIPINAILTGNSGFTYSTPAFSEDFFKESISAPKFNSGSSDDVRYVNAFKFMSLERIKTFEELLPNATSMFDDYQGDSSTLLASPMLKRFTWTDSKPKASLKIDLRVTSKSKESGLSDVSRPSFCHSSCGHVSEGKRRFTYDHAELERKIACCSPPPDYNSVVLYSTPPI
T10 sequence (P11309 whole entry, the tested form may be a part): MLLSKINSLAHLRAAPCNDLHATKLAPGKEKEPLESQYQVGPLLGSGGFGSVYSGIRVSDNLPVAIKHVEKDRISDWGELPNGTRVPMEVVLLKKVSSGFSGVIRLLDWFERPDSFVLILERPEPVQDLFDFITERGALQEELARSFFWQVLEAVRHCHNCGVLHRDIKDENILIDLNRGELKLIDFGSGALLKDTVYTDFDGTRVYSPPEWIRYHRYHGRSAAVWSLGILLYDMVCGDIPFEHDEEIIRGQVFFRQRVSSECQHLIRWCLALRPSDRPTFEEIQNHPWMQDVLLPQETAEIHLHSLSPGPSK
T7 sequence (Q13557 whole entry, the tested form may be a part): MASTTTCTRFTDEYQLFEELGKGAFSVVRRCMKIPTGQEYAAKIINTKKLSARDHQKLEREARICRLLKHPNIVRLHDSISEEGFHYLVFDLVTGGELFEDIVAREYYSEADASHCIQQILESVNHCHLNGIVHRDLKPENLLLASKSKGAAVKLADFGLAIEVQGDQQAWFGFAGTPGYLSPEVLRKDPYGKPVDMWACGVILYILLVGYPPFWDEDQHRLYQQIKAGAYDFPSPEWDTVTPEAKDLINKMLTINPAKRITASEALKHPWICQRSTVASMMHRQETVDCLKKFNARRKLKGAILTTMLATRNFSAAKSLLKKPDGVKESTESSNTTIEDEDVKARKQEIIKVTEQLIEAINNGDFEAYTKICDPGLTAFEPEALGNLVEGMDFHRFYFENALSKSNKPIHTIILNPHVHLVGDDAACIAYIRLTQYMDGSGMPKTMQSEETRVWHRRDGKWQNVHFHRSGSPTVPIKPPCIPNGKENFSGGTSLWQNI
T4 sequence (P53355 whole entry, the tested form may be a part): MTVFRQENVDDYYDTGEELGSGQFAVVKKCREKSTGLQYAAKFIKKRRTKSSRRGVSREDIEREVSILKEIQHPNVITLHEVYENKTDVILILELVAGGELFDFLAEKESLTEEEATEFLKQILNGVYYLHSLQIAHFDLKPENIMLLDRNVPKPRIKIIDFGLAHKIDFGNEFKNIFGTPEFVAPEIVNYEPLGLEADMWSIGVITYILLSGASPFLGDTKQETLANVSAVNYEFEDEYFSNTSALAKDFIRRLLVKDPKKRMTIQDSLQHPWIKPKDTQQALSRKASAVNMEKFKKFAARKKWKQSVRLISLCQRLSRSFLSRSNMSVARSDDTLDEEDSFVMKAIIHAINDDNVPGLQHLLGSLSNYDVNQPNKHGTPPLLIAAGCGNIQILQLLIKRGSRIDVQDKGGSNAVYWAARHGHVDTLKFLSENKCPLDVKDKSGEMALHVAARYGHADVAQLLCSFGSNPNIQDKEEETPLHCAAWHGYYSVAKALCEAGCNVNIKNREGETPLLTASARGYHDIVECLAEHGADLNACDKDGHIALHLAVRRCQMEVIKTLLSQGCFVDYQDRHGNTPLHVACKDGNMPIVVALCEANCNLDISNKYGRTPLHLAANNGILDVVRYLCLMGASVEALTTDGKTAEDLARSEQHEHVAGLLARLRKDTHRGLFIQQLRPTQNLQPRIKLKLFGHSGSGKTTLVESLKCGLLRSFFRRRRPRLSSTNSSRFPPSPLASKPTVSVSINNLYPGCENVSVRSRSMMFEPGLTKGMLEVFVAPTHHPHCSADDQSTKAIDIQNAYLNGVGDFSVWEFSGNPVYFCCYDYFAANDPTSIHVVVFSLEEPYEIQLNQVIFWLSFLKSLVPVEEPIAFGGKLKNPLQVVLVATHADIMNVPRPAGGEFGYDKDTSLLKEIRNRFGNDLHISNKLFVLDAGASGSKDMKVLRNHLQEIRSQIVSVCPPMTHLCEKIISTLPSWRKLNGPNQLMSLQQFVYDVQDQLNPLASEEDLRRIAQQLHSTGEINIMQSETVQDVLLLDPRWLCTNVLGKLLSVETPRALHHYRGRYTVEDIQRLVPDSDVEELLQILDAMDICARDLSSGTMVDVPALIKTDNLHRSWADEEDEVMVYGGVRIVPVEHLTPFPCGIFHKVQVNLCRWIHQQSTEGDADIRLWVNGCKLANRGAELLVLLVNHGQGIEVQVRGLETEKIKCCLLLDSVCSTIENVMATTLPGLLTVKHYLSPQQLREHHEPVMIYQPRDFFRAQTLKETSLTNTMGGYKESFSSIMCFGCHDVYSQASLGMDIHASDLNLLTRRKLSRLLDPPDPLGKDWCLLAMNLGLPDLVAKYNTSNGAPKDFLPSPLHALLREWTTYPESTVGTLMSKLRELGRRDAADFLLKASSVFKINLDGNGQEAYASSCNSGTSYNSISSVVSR

dTm [1] [K]	dTm [2] [K]	dTm [3] [K]	dTm [4] [K]	dTm [5] [K]	S (5 K) / share of screened kinases stabilized [6] [%]	dTm [6] [K]	S(5K) [6, 12]	# >5K [6, 13]	S(5K) [6, 14]	dTm [7] [K]	dTm [8] [K]	dTm [9] [K]	dTm [10] [K]	dTm [11] [K]	SMILES	# >5K [6]	S(5K) [6]
3.92	0.57	0.21	-1.28	6.35	16	-1.02	0.16	16	0.160	-0.33	0.16	1.78	5.20	0.61	O=C(Nc1cccc(-c2c[nH]c3ncnc(N4CCOCC4)c23)c1)C1(C(=O)Nc2ccc(F)cc2F)CC1 [Compound 23]		
-2.83	4.77	2.79	0.0134	13.77		-0.20	0.42	42	0.420	1.71	0.24	3.64	7.49	5.73	Cc1cc(NC(=O)C2(C(=O)Nc3cccc(-c4c[nH]c5ncnc(N6CCOCC6)c45)c3)CC2)ccc1F [Compound 20]		
7.62	-0.77	-0.72	-1.54	7.78		-3.84	0.15	15	0.149	0.67	-0.29	0.27	1.72	3.25	CC(=O)N1CCN(c2nc(Cl)nc3[nH]cc(-c4cccc(NC(=O)Nc5cc(C(C)(C)C)nn5-c5ccc(C)cc5)c4)c23)CC1 [Compound 31]		
1.73	1.41	0.93	-0.31	7.72		0.73	0.13	13	0.125	1.05	0.64	1.56	3.77	1.27	Cc1cc(NC(=O)C2(C(=O)Nc3ccc(F)cc3)CC2)cc(-c2c[nH]c3ncnc(N4CCOCC4)c23)c1 [Compound 6]		
3.09	1.57	1.25	0.18	7.66		-0.35	0.26	26	0.260	0.88	0.39	2.08	5.86	3.25	O=C(Nc1ccccc1)C1(C(=O)Nc2cccc(-c3c[nH]c4ncnc(N5CCOCC5)c34)c2)CC1 [Compound 12]		
3.75	4.72	1.52	-1.32	7.58		1.82	0.31	32	0.308	-0.34	1.25	3.38	6.16	3.98	O=C(Nc1cccc(-c2c[nH]c3ncnc(N4CCOCC4)c23)c1)C1(C(=O)Nc2ccc(F)c(Br)c2)CC1 [Compound 19]		
7.13	-1.02	-1.15	-3.64	4.87	10	-1.65	0.10	10	0.099	-1.11	-0.81	0.45	1.92	1.31	Cc1ccc(-n2nc(C(C)(C)C)cc2NC(=O)Nc2cccc(-c3c[nH]c4nc(Cl)nc(N5CCOCC5)c34)c2)cc1 [Compound 30]		
12.33	3.69	3.91	2.32	16.05	49	-0.0106	0.49	49	0.490	4.96	0.51	1.76	6.08	7.97	CC(C)(C)c1cc(NC(=O)Nc2cccc(-c3c[nH]c4ncnc(N5CCOCC5)c34)c2)n(-c2ccc3ncccc3c2)n1 [Compound 28]		

SMILES	dTm [1] [K]	dTm [2] [K]	dTm [3] [K]	dTm [4] [K]	dTm [5] [K]	S (5 K) / share of screened kinases stabilized [6] [%]	dTm [6] [K]	S(5K) [6, 12]	# >5K [6, 13]	S(5K) [6, 14]	dTm [7] [K]	dTm [8] [K]	dTm [9] [K]	dTm [10] [K]	dTm [11] [K]	# >5K [6]	S(5K) [6]
Cc1ccc(C(=O)Nc2ccc(CN3CCN(C)CC3)c(C(F)(F)F)c2)cc1C#Cc1cnc2cccnn12 [Ponatinib, reference compound]	18.52	1.32														28	0.272
Cn1cc(-c2c[nH]c3ncnc(N4CCOCC4)c23)cc1C#N [PFE-360]	2.46	0.56	1.53	0.54	-0.23		-0.51		12	0.118	0.58	0.51	1.09	1.90	1.04		
COc1cc2c(Oc3ccc(NC(=O)C4(C(=O)Nc5ccc(F)cc5)CC4)cc3F)ccnc2cc1OCCCN1CCOCC1 [Foretinib, reference compound]			1.61	-0.15	7.77						-0.88	0.34	2.25	2.73	1.41	30	0.300
CN[C@@H]1C[C@H]2O[C@@](C)([C@@H]1OC)n1c3ccccc3c3c4c(c5c6ccccc6n2c5c31)C(=O)NC4 [Staurosporine]	13.08	8.45		9.84	7.17						16.71		12.80				
CNC(=O)c1cc(Oc2ccc(NC(=O)Nc3cc(C(C)(C)C)nn3-c3ccc4ncccc4c3)c(F)c2)ccn1 [Rebastinib, reference compound]		1.22		-1.01	14.66						6.29	2.16	0.26	0.53	0.65		
